Experiments:
Test in all cases: apparent dissociation constant (pKDapp, Kinobeads competition, Cheng-Prusoff corrected) (-log10 M); higher = tighter binding
PCTK3 = PCTK3 (UniProt Q07002); details: affinity matrix / lysate: Kinobeads, mixed HEK293/K-562/placenta lysate
PRKCB = PRKCB (UniProt P05771); details: affinity matrix / lysate: Kinobeads, mixed HEK293/K-562/placenta lysate
HCK = HCK (UniProt P08631); details: affinity matrix / lysate: Kinobeads, mixed HEK293/K-562/placenta lysate
BRAF = BRAF (UniProt P15056); details: affinity matrix / lysate: Kinobeads, mixed HEK293/K-562/placenta lysate
AURKB = AURKB (UniProt Q96GD4); details: affinity matrix / lysate: Kinobeads, mixed HEK293/K-562/placenta lysate
MAPK6 = MAPK6 (UniProt Q16659); details: affinity matrix / lysate: Kinobeads, mixed HEK293/K-562/placenta lysate
BCR = BCR (UniProt P11274); details: affinity matrix / lysate: Kinobeads, mixed HEK293/K-562/placenta lysate
STK38 = STK38 (UniProt Q15208); details: affinity matrix / lysate: Kinobeads, mixed HEK293/K-562/placenta lysate
EGFR = EGFR (UniProt P00533); details: affinity matrix / lysate: Kinobeads, mixed HEK293/K-562/placenta lysate
EGFR, sequence (P00533 whole entry): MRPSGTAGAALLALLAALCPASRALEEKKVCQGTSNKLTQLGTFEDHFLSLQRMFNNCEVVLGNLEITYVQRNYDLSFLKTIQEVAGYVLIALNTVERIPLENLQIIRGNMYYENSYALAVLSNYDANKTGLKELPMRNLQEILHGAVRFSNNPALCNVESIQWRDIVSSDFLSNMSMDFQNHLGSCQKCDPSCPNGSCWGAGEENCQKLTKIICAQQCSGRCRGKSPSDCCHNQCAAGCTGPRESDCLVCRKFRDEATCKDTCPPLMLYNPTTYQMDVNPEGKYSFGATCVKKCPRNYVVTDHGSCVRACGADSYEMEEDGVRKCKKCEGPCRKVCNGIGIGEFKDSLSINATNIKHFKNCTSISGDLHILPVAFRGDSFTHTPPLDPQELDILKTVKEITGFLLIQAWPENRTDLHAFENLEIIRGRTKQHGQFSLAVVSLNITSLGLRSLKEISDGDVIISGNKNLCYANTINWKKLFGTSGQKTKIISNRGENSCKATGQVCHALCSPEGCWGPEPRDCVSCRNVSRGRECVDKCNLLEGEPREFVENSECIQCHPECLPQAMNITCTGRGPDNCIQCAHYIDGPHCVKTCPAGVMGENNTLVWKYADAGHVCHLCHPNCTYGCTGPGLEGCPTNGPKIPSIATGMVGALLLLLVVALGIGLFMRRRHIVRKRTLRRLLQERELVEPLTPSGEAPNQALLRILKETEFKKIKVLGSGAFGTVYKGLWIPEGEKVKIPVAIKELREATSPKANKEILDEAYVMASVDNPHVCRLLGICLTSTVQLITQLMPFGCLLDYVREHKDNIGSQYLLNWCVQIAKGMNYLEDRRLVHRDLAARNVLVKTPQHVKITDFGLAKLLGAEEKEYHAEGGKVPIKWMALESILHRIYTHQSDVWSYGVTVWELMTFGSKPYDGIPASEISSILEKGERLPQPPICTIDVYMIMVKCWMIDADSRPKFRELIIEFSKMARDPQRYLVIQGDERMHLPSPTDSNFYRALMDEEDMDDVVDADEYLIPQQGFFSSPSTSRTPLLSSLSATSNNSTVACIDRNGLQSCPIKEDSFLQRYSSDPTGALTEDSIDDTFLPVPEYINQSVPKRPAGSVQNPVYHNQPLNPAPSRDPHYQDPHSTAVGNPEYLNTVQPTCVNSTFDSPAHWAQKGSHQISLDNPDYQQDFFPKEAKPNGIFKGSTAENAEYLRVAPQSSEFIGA

SIK2 = SIK2 (UniProt Q9H0K1); details: affinity matrix / lysate: Kinobeads, mixed HEK293/K-562/placenta lysate
MARK2 = MARK2 (UniProt Q7KZI7); details: affinity matrix / lysate: Kinobeads, mixed HEK293/K-562/placenta lysate
PRKD2 = PRKD2 (UniProt Q9BZL6); details: affinity matrix / lysate: Kinobeads, mixed HEK293/K-562/placenta lysate
MAPK9 = MAPK9 (UniProt P45984); details: affinity matrix / lysate: Kinobeads, mixed HEK293/K-562/placenta lysate
MAPK9, sequence (P45984 whole entry, looked up): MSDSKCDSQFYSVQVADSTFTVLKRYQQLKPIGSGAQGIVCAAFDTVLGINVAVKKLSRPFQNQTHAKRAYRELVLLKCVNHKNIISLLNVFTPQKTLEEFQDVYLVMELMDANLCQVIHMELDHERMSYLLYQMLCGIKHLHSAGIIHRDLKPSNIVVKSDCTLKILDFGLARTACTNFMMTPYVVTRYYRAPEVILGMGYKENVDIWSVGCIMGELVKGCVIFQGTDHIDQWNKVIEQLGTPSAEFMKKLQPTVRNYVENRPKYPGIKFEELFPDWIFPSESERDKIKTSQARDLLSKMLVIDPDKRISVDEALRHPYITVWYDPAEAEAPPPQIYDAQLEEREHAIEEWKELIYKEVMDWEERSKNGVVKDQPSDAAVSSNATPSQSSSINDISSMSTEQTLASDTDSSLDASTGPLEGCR

MAPK7 = MAPK7 (UniProt Q13164); details: affinity matrix / lysate: Kinobeads, mixed HEK293/K-562/placenta lysate
LIMK2 = LIMK2 (UniProt P53671); details: affinity matrix / lysate: Kinobeads, mixed HEK293/K-562/placenta lysate
AKT2 = AKT2 (UniProt P31751); details: affinity matrix / lysate: Kinobeads, mixed HEK293/K-562/placenta lysate
ACVR2A = ACVR2A (UniProt P27037); details: affinity matrix / lysate: Kinobeads, mixed HEK293/K-562/placenta lysate
ACVR2A, sequence (P27037 whole entry): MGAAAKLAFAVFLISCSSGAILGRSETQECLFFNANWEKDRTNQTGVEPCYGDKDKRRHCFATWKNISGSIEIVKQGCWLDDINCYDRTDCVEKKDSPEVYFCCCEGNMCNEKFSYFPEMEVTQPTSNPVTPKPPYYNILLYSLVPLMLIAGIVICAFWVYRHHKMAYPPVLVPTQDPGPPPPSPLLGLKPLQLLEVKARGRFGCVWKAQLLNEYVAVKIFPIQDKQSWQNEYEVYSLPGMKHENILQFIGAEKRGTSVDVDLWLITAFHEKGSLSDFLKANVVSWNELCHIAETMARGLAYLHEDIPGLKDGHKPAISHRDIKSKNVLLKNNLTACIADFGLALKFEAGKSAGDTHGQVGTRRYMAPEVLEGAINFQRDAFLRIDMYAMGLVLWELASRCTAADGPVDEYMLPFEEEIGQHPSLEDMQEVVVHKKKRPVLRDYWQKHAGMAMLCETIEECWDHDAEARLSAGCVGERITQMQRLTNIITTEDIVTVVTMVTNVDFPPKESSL

BMX = BMX (UniProt P51813); details: affinity matrix / lysate: Kinobeads, mixed HEK293/K-562/placenta lysate
IRAK4 = IRAK4 (UniProt Q9NWZ3); details: affinity matrix / lysate: Kinobeads, mixed HEK293/K-562/placenta lysate
IRAK4, sequence (Q9NWZ3 whole entry): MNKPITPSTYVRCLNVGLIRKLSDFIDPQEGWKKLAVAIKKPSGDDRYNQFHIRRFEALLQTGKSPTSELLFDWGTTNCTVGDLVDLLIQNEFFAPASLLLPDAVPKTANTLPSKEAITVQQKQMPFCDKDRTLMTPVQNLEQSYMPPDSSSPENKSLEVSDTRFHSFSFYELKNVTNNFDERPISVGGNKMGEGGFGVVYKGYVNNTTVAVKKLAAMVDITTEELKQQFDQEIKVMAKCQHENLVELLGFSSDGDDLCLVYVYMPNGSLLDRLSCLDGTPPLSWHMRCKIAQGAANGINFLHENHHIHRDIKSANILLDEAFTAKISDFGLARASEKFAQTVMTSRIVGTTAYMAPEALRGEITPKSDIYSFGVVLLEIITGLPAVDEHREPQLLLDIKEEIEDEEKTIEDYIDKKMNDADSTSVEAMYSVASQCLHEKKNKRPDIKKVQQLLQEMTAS

MAP3K7 = MAP3K7 (UniProt O43318); details: affinity matrix / lysate: Kinobeads, mixed HEK293/K-562/placenta lysate
BUB1 = BUB1 (UniProt O43683); details: affinity matrix / lysate: Kinobeads, mixed HEK293/K-562/placenta lysate
BUB1, sequence (O43683 whole entry, looked up): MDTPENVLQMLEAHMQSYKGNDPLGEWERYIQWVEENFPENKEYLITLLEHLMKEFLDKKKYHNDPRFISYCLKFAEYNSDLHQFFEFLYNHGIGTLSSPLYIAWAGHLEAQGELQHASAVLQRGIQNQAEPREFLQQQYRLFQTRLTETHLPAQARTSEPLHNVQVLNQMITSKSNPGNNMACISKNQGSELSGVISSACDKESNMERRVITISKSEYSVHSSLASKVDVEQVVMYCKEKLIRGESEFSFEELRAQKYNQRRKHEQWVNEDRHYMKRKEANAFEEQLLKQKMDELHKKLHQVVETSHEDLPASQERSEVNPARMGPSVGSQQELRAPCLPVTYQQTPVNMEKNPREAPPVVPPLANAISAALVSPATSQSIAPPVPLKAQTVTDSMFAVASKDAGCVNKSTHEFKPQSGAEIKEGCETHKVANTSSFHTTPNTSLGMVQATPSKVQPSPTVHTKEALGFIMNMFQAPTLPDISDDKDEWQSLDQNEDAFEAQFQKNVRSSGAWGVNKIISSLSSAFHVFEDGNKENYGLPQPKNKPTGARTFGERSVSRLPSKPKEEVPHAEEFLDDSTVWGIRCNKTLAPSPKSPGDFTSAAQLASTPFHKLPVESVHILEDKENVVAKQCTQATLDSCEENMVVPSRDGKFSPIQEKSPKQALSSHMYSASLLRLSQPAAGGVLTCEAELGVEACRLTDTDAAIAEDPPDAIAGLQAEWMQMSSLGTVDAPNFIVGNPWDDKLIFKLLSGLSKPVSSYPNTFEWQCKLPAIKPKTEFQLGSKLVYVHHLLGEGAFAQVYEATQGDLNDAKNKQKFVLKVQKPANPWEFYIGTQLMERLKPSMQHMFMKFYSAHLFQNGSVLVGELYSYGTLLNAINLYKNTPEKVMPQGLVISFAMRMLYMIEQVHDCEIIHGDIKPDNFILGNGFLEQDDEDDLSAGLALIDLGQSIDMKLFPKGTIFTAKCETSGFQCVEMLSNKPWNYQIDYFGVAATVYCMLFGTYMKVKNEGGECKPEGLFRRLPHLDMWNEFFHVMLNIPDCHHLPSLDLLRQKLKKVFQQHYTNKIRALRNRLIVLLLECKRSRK

MAP3K5 = MAP3K5 (UniProt Q99683); details: affinity matrix / lysate: Kinobeads, mixed HEK293/K-562/placenta lysate
NTRK1 = NTRK1 (UniProt P04629); details: affinity matrix / lysate: Kinobeads, mixed HEK293/K-562/placenta lysate
NTRK1, sequence (P04629 whole entry, looked up): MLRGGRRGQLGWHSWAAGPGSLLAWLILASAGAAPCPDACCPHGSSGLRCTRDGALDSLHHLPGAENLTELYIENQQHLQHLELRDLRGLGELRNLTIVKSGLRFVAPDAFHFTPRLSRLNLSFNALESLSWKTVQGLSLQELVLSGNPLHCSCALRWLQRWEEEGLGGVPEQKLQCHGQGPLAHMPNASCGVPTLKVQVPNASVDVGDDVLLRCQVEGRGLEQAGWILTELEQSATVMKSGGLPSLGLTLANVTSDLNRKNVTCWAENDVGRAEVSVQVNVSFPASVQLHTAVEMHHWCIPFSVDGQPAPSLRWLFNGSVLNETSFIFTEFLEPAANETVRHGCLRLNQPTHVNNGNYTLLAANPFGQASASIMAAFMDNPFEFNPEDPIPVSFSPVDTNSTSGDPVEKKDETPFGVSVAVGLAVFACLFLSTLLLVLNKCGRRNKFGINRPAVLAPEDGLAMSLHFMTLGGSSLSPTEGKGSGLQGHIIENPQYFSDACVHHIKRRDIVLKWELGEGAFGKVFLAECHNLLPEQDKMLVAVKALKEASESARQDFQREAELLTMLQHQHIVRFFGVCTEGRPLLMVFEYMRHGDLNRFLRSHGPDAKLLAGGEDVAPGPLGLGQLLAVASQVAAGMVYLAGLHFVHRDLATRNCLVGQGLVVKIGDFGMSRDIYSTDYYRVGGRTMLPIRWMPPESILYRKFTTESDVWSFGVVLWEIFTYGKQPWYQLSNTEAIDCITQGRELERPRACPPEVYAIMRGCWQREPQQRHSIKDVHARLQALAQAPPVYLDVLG

CDC42BPB = CDC42BPB (UniProt Q9Y5S2); details: affinity matrix / lysate: Kinobeads, mixed HEK293/K-562/placenta lysate
TTK = TTK (UniProt P33981); details: affinity matrix / lysate: Kinobeads, mixed HEK293/K-562/placenta lysate
TEC = TEC (UniProt P42680); details: affinity matrix / lysate: Kinobeads, mixed HEK293/K-562/placenta lysate
RPS6KB1 = RPS6KB1 (UniProt P23443); details: affinity matrix / lysate: Kinobeads, mixed HEK293/K-562/placenta lysate
MAST3 = MAST3 (UniProt O60307); details: affinity matrix / lysate: Kinobeads, mixed HEK293/K-562/placenta lysate
MYLK3 = MYLK3 (UniProt Q32MK0); details: affinity matrix / lysate: Kinobeads, mixed HEK293/K-562/placenta lysate
PRKCA = PRKCA (UniProt P17252); details: affinity matrix / lysate: Kinobeads, mixed HEK293/K-562/placenta lysate
ATM = ATM (UniProt Q13315); details: affinity matrix / lysate: Lipid Kinobeads, mixed HeLa/Jurkat/K-562 lysate
STK3 = STK3 (UniProt Q13188); details: affinity matrix / lysate: Kinobeads, mixed HEK293/K-562/placenta lysate
STK3, sequence (Q13188 whole entry): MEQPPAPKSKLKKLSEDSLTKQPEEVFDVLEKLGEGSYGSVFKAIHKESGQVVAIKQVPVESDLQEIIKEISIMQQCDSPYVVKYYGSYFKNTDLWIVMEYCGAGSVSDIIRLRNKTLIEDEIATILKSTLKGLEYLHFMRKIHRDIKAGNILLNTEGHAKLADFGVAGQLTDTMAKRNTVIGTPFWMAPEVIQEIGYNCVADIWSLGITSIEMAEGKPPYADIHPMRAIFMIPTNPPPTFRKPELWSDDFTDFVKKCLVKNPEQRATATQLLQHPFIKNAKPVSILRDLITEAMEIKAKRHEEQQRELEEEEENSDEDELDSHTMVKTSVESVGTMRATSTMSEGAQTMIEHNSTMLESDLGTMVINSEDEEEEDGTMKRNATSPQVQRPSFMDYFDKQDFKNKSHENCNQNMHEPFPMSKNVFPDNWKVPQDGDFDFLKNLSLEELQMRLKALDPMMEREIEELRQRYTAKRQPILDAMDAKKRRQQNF

ABL1 = ABL1 (UniProt P00519); details: affinity matrix / lysate: Kinobeads, mixed HEK293/K-562/placenta lysate

SMILES | apparent dissociation constant (-log10 M) (PCTK3) | apparent dissociation constant (-log10 M) (PRKCB) | apparent dissociation constant (-log10 M) (HCK) | apparent dissociation constant (-log10 M) (BRAF) | apparent dissociation constant (-log10 M) (AURKB) | apparent dissociation constant (-log10 M) (MAPK6) | apparent dissociation constant (-log10 M) (BCR) | apparent dissociation constant (-log10 M) (STK38) | apparent dissociation constant (-log10 M) (EGFR) | apparent dissociation constant (-log10 M) (SIK2) | apparent dissociation constant (-log10 M) (MARK2) | apparent dissociation constant (-log10 M) (PRKD2) | apparent dissociation constant (-log10 M) (MAPK9) | apparent dissociation constant (-log10 M) (MAPK7) | apparent dissociation constant (-log10 M) (LIMK2) | apparent dissociation constant (-log10 M) (AKT2) | apparent dissociation constant (-log10 M) (ACVR2A) | apparent dissociation constant (-log10 M) (BMX) | apparent dissociation constant (-log10 M) (IRAK4) | apparent dissociation constant (-log10 M) (MAP3K7) | apparent dissociation constant (-log10 M) (BUB1) | apparent dissociation constant (-log10 M) (MAP3K5) | apparent dissociation constant (-log10 M) (NTRK1) | apparent dissociation constant (-log10 M) (CDC42BPB) | apparent dissociation constant (-log10 M) (TTK) | apparent dissociation constant (-log10 M) (TEC) | apparent dissociation constant (-log10 M) (RPS6KB1) | apparent dissociation constant (-log10 M) (MAST3) | apparent dissociation constant (-log10 M) (MYLK3) | apparent dissociation constant (-log10 M) (PRKCA) | apparent dissociation constant (-log10 M) (ATM) | apparent dissociation constant (-log10 M) (STK3) | apparent dissociation constant (-log10 M) (ABL1)
COc1ccc(-c2ccc3c(N4CCOC[C@@H]4C)nc(N4CCOC[C@@H]4C)nc3n2)cc1CO [AZD8055] | < 6 | < 6 | < 6 | < 6 | < 6 | < 6 | < 6 | < 6 | < 6 | < 6 | < 6 | < 6 | < 6 | < 6 | < 6 | < 6 | < 6 | < 6 | < 6 | < 6 | < 6 | < 6 | < 6 | < 6 | < 6 | < 6 | < 6 | < 6 | < 6 | < 6 | 6.36 | < 6 | < 6
CCNC(=O)Nc1ccc(-c2nc(N3CCOC[C@@H]3C)c3c(n2)C(C)(C)S(=O)(=O)C3)cc1 [CZ415] | < 6 | < 6 | < 6 | < 6 | < 6 | < 6 | < 6 | < 6 | < 6 | < 6 | < 6 | < 6 | < 6 | < 6 | < 6 | < 6 | < 6 | < 6 | < 6 | < 6 | < 6 | < 6 | < 6 | < 6 | < 6 | < 6 | < 6 | < 6 | < 6 | < 6 | < 6 | < 6 | < 6
